{"source": "PubChem BioAssay AID2744", "about": "(NMMLSC, 2010)", "note": "The source made the active and inactive calls.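 The calls were made as follows: active = fitted half-maximal concentration for changing reporter fluorescence at or below a set limit; inactive = the rest.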"}
{"molecular_target": "Citrate synthase, peroxisomal (Saccharomyces cerevisiae (strain ATCC 204508 / S288c)) (UniProt P08679)", "sequence (P08679 whole entry, looked up)": "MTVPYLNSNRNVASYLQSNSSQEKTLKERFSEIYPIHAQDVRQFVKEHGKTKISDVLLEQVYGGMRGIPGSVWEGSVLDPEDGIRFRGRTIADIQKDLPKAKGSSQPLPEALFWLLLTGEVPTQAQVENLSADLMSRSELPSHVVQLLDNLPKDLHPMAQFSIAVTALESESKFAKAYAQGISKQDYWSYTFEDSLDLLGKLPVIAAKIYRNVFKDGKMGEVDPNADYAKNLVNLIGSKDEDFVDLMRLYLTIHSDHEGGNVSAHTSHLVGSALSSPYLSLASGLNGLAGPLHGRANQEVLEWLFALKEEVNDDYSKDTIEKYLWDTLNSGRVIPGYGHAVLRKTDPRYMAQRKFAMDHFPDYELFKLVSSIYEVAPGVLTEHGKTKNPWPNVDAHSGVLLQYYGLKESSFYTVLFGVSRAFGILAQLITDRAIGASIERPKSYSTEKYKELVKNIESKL", "test": "yeast TOR pathway CIT2-GFP reporter potency – flow cytometry, MLPCN hits, dose response (AID 2744)", "conditions": "S. cerevisiae CIT2-GFP strain, 3 h, at 33 µM (top of the series)"}
{"smiles": "CS(=O)(=O)c1nc(-c2ccccc2)cc(C(F)(F)F)n1", "GFP fluorescence, higher = induction": "inactive"}
{"smiles": "COc1cccc2sc(Nc3nc(-c4ccccn4)cs3)nc12", "GFP fluorescence, higher = induction": "inactive"}
{"smiles": "Nc1ccccc1SC(C[N+](=O)[O-])c1ccccc1", "note": "(configuration not stated)", "GFP fluorescence, higher = induction": "inactive"}
{"smiles": "Cc1ccc(/C=C2/SC(=S)N(C3CCCCC3)C2=O)o1", "GFP fluorescence, higher = induction": "inactive"}
{"smiles": "CCCc1cc(=O)oc2cc(C)cc(OCC(=O)NC3CC3)c12", "GFP fluorescence, higher = induction": "inactive"}
{"smiles": "O=C1C2C3C=CC(CO)(O3)C2C(=O)N1c1ccccc1-c1ccccc1", "note": "(configuration not stated)", "GFP fluorescence, higher = induction": "inactive"}
{"smiles": "CCc1nc2ccccc2c(=O)n1NC(=O)c1c(O)c2cccc3c2n(c1=O)CCC3", "GFP fluorescence, higher = induction": "inactive"}
{"smiles": "COc1ccc(C(=O)/C=C2/C(=O)Nc3ccccc32)c(OC)c1", "GFP fluorescence, higher = induction": "inactive"}
{"smiles": "COc1cc(/C=C2\\C(=O)N(CCC#N)N=C2C)c(Br)cc1OC(C)C", "GFP fluorescence, higher = induction": "inactive"}
{"smiles": "O=C(COc1ccc(F)cc1Cl)Nc1nc(-c2ccccn2)cs1", "GFP fluorescence, higher = induction": "inactive"}
{"smiles": "O=C1NC(=O)N(CCc2ccc(F)cc2)C(=O)/C1=C/c1cccs1", "GFP fluorescence, higher = induction": "inactive"}
{"smiles": "O=C1/C(=C\\c2ccc(O)c(O)c2)SC(=S)N1Cc1ccccc1", "GFP fluorescence, higher = induction": "inactive"}
{"smiles": "CCN(CC)c1ccc(/C=C2\\C(=O)c3ccc(C(=O)O)cc3C2=O)cc1", "GFP fluorescence, higher = induction": "inactive"}
{"smiles": "COc1ccccc1N=Nc1ccc(O)c2ncccc12", "GFP fluorescence, higher = induction": "inactive"}
{"smiles": "O=S(=O)(c1ccccc1)c1ccc(C(F)(F)F)cn1", "GFP fluorescence, higher = induction": "inactive"}
{"smiles": "Cc1cccc(C(=O)NC(=S)NNC(=O)Cc2ccccc2)c1", "GFP fluorescence, higher = induction": "inactive"}
{"smiles": "C/C(=N\\Nc1ncnc2sc(C)c(C)c12)c1ccccn1", "GFP fluorescence, higher = induction": "inactive"}
{"smiles": "COc1ccc(N2C(=O)C(Cl)=C(Oc3cccc(OC)c3)C2=O)cc1", "GFP fluorescence, higher = induction": "inactive"}
{"smiles": "CC(C)(C)c1ccc(NC(=O)COC(=O)c2ccc([N+](=O)[O-])s2)cc1", "GFP fluorescence, higher = induction": "inactive"}
{"smiles": "Cc1ccsc1/C=N/Nc1ncc(Cl)cc1Cl", "GFP fluorescence, higher = induction": "inactive"}
{"smiles": "COC(=O)CCC(=O)OC1(C)C(=O)C2=COC(c3ccc(OC)cc3)=CC2=C(Br)C1=O", "note": "(configuration not stated)", "GFP fluorescence, higher = induction": "inactive"}
{"smiles": "CCCc1cc(NCc2ccccn2)n2nc(C)c(-c3ccccc3)c2n1", "GFP fluorescence, higher = induction": "inactive"}
{"smiles": "Cc1cc(C)c(S(=O)(=O)N2CCC(C(=O)NCc3ccc(Cl)cc3Cl)CC2)c(C)c1", "GFP fluorescence, higher = induction": "inactive"}
{"smiles": "CC(C)(C)C1C/C(=C/c2ccccn2)C(=O)/C(=C/c2ccccn2)C1", "note": "(configuration not stated)", "GFP fluorescence, higher = induction": "inactive"}
{"smiles": "CCN(CC(=O)NC(C)(C)C)C(=O)COc1c(Cl)cc(Cl)c2ccc(C)nc12", "GFP fluorescence, higher = induction": "inactive"}
{"smiles": "O=C1C=C(c2ccc(Cl)cc2)C(=O)N1Nc1ccccc1", "GFP fluorescence, higher = induction": "inactive"}
{"smiles": "Cc1ccccc1[C@]1(C)ON(c2ccccc2C(F)(F)F)C1=O", "GFP fluorescence, higher = induction": "inactive"}
{"smiles": "O=c1c2cc(Cl)ccc2nc(-c2ccc([N+](=O)[O-])cc2)n1O", "GFP fluorescence, higher = induction": "inactive"}
{"smiles": "COC(=O)c1cc(N2C(=O)C3C(C2=O)C2(C)C=CC3(C)O2)ccc1Cl", "note": "(configuration not stated)", "GFP fluorescence, higher = induction": "inactive"}
{"smiles": "CC(=O)Oc1oc(-c2ccccc2)nc1C=Nc1ccc(N(C)C)cc1", "GFP fluorescence, higher = induction": "inactive"}
{"smiles": "Cc1cc(Br)c2c(c1)/C(=C/C(=O)c1cccs1)C(=O)N2", "GFP fluorescence, higher = induction": "inactive"}
{"smiles": "Cc1ccc2c(c1)c(/C=C/c1cc[n+](C)cc1)c(C)n2C", "GFP fluorescence, higher = induction": "inactive"}
{"smiles": "CN(C)C(=O)Oc1ccnc2cc(Cl)ccc12", "GFP fluorescence, higher = induction": "inactive"}
{"smiles": "O=c1/c(=C/c2cccc3ccccc23)sc2ncnn12", "GFP fluorescence, higher = induction": "inactive"}
{"smiles": "Cc1ccc(S(=O)(=O)ON2C(=O)c3ccccc3C2=O)c(C)c1", "GFP fluorescence, higher = induction": "inactive"}
{"smiles": "COc1ccc(/C=C2\\C(=O)ON=C2c2ccccc2)cc1", "GFP fluorescence, higher = induction": "inactive"}
{"smiles": "Cc1ccc(/C=C/C(=O)c2ccc([N+](=O)[O-])o2)cc1", "GFP fluorescence, higher = induction": "inactive"}
{"smiles": "O=C(Oc1c(Cl)cc(Cl)c2cccnc12)c1cccs1", "GFP fluorescence, higher = induction": "inactive"}
{"smiles": "O=c1[nH]c(-c2ccc(Cl)cc2)cs1", "GFP fluorescence, higher = induction": "inactive"}
{"smiles": "O=C(CCS(=O)(=O)c1ccccc1)Nc1nc(-c2ccccn2)cs1", "GFP fluorescence, higher = induction": "inactive"}
{"smiles": "O=C1C=CC(=O)N1N(c1ccccc1)c1ccccc1", "GFP fluorescence, higher = induction": "inactive"}
{"smiles": "O=C(/C=C/c1ccccn1)c1cc(Br)ccc1O", "GFP fluorescence, higher = induction": "inactive"}
{"smiles": "Nc1ccc(Br)c2c1C(=O)c1ccccc1C2=O", "GFP fluorescence, higher = induction": "inactive"}
{"smiles": "COc1ccccc1C(=O)NNC(=S)NC(=O)c1ccco1", "GFP fluorescence, higher = induction": "inactive"}
{"smiles": "C=CCOc1ccc(C(=O)/C=C2/C(=O)Nc3ccccc32)cc1", "GFP fluorescence, higher = induction": "inactive"}
{"smiles": "Cc1[nH][nH]c(=O)c1C(c1ccc(-c2ccc(Cl)c(Cl)c2)o1)c1c(C)[nH][nH]c1=O", "GFP fluorescence, higher = induction": "inactive"}
{"smiles": "CCCCOc1ccc(C(=O)NNC(=S)NC(=O)CC)cc1", "GFP fluorescence, higher = induction": "inactive"}
{"smiles": "Cc1cc(=O)oc2cc(Oc3ccc([N+](=O)[O-])cc3C(F)(F)F)ccc12", "GFP fluorescence, higher = induction": "inactive"}
{"smiles": "Cc1cc(C)c(C)c(S(=O)(=O)ON2C(=O)c3ccccc3C2=O)c1C", "GFP fluorescence, higher = induction": "inactive"}
{"smiles": "CN1C(=O)/C(=N\\OC(=O)c2cccc3ccccc23)c2ccccc21", "GFP fluorescence, higher = induction": "inactive"}
{"smiles": "C[C@H]1C[C@@H](C)C(=O)[C@@H]([C@H](O)CC2CC(=O)NC(=O)C2)C1", "GFP fluorescence, higher = induction": "inactive"}
{"smiles": "Cc1ccccc1OCC(=O)NNC(=S)NC(=O)c1ccco1", "GFP fluorescence, higher = induction": "inactive"}
{"smiles": "CCOc1ccccc1/C=c1\\sc2ncnn2c1=O", "GFP fluorescence, higher = induction": "inactive"}
{"smiles": "CCN1/C(=C/C=C/c2sc3ccccc3[n+]2CC)Sc2ccccc21", "GFP fluorescence, higher = induction": "inactive"}
{"smiles": "O=[N+]([O-])c1ccc(S(=O)(=O)c2cccc(C(F)(F)F)c2)nc1", "GFP fluorescence, higher = induction": "inactive"}
{"smiles": "O=C(Nc1cccc(-c2csc(Nc3ccccc3)n2)c1)c1ccccc1", "GFP fluorescence, higher = induction": "inactive"}
{"smiles": "Cc1[nH]c(-c2ccccn2)nc(=S)c1Cl", "GFP fluorescence, higher = induction": "inactive"}
{"smiles": "O=C1Oc2ccccc2C(=O)/C1=C/c1ccccc1O", "GFP fluorescence, higher = induction": "inactive"}
{"smiles": "CCSc1nnc(NC(=O)c2ccccn2)s1", "GFP fluorescence, higher = induction": "inactive"}
{"smiles": "COc1ccc(C=C2C(=O)c3ccccc3C2=O)cc1O", "GFP fluorescence, higher = induction": "inactive"}
{"smiles": "CCOC(=O)Cn1cc(/C=C/[N+](=O)[O-])c2ccccc21", "GFP fluorescence, higher = induction": "inactive"}
{"molecular_target": "Citrate synthase, peroxisomal (Saccharomyces cerevisiae (strain ATCC 204508 / S288c)) (UniProt P08679)", "test": "yeast TOR pathway CIT2-GFP reporter potency – flow cytometry, MLPCN hits, dose response (AID 2744)", "conditions": "S. cerevisiae CIT2-GFP strain, flow cytometry fluorescence, 3 h", "units": {"EC50": "µM"}}
{"smiles": "N/C(Cc1ccc(Cl)c(Cl)c1)=N\\OC(=O)c1cccs1", "EC50": 10.3}
